For three compounds, melting point results are on record in patent publication US8633335B2, “Retinoid prodrug compound” (Research Founation Itsuu Laboratory, priority 2007, dated 2014).

The melting point is the temperature of the solid-liquid transition. Turning to `C[C@H](OC(=O)c1ccc(C(=O)Nc2cc([Si](C)(C)C)cc([Si](C)(C)C)c2)cc1)C(=O)O`, the melting point fell in the range of 198 to 200 °C.
As for `CC1(C)CCC(C)(C)c2cc(NC(=O)c3ccc(C=O)cc3)ccc21` [Example 23, 4-Formyl-N-(5,6,7,8-tetrahydro-5,5,8,8-tetramethyl-2-naphthyl)benzamide], the melting point was 185.5 to 186.5 °C.
The figure for `CC1(C)CCC(C)(C)c2cc(NC(=O)c3ccc(/C=C/C(=O)O)cc3)ccc21` [Example 24, 4-[(5,6,7,8-Tetrahydro-5,5,8,8-tetramethyl-2-naphthyl)carbamoyl]cinnamic acid] is 226 to 227 °C.
